Reference: patent US8877773B2, “Methods for treating chronic obstructive pulmonary disease” (Indiana University Research and Technology Corporation, priority 2009, dated 2014)

Test system: rats exposed to hypercarbic gas
Assay: Hypercarbic gas (20% CO2) challenge: open-field test
Type: in vivo, rat
Settings: 30 mg/kg i.p.
Description: On day 1, rats (n=3/group) were selected from their home cages and placed into experimental cages containing atmospheric air. […] Fecal pellets were counted in cages at the end of gas challenges. In order to assess anxiety-like behavioural responses following exposure to hypercarbic gas, rats were immediately transferred to an adjacent room and place in the center square of an open-field box for a 5 min test. On day 2, the experiment was repeated, but the treatments were reversed for each rat. For instance, rats that received atmospheric gas challenge on day 1 received the hypercapnic gas challenge on day 2.
The open-field arena covered an area of 90 cm×90 cm, with 40 cm high walls. The open-field arena was divided into a 6×6 grid of equally-sized squares using black tape (36 total squares) with 4 squares forming the center; 12 squares forming the middle perimeter; and 20 squares forming the outer perimeter. The test started by placing a rat in the center. The behavior of each rat in the open-field arena was recorded on video and scored afterwards by an observer (PLJ) blind to the experimental treatment of each rat. Time spent in each region of the open-field was recorded. In addition, locomotor activity was assessed by counting the number of times the rat's entire body (excluding tail) completely crossed into another square.
All rats received hypercarbic gas infusions as described in detail in Experiment 11. […] Blood pressure, heart rate, locomotor activity, number of fecal pellets and anxiety-like behavior were assessed as described in Experiment 11.
Dependent variables for analyses of cardiovascular responses (HR, MAP) and locomotor activity were analysed using a […], using gas infusion as the between-subjects factor and time as a within-subjects factor. Dependent variables for the number of fecal pellets and open-field anxiety test (i.e., time spent in each section, line crossings) were analysed using a one-way ANOVA with gas infusion in Experiment 11 and drug treatment in Experiment 12 as the between-subjects factors. […] Within-subjects comparisons were also made on the MAP and HR measures using a Dunnett's test for multiple comparisons with a single control using the 5 Min baseline measurement as the control. The alpha level was set at 0.05 in all cases.

Q: Which “time spent in the center of open field after hypercarbic gas” value (between groups) does the source give for `Cc1nc2ccc(NC(=O)Nc3ccnc4cccnc34)cc2o1` [SB334867, N-(2-Methyl-6-benzoxazolyl)-N′-1,5-naphthyridin-4-yl urea] here?
A: No differences

Q: What about the “time spent in the outer perimeter of open field after hypercarbic gas” value (between groups) of the same compound?
A: No differences

Q: What about the “hypercapnic gas-induced anxiety responses” value (20% CO2/normoxic gas) of the same compound?
A: attenuated

Q: What about the “time in the middle perimeter region of open field after hypercarbic gas” value (SB/CO2 vs Veh/CO2 group) of the same compound?
A: significantly more time
